Experimental data: patent US20040077617A1, “Fused cycloalkyl amides and acids and their therapeutic applications” (priority 2002, published 2004)

How the values were obtained:
[1] = system: CD-1 mice; assay: Maximal Electroshock Procedure (protection from tonic seizures); type: in vivo; conditions: Mus musculus, po; maximal electroshock (50 mA, 0.4 second, corneal electrodes); male CD-1 mice; p.o. 30 minutes prior to stimulation; PROBIT analysis; read-out: ED50 (dose at which 50% of the mice were protected from tonic seizures)
Procedure: (§1) Adult, male, CD-1 mice (22-25 grams) were obtained from Charles River Laboratories (Portage, Mich.) and housed at Abbott Laboratories (Abbott Park) under standard lighting conditions of 12 hours on/12 hours off, with lights on at 6 a.m. Food and water were provided ad libitum and mice weighed 25-35 grams at the time of testing.
(§2) Compounds were prepared for oral administration by suspending them in a vehicle of 100 μL Tween® 80 per mL hydroxypropyl methylcellulose (2 mg/mL, Abbott Laboratories). Compound solutions were administered at a volume of 10 mL/kg, p.o.
Maximal Electroshock Procedure:
The method used was similar to that of E.A. Swinyard, General principles: Experimental selection, quantification and evaluation of anti-convulsants, Anti-epileptic Drugs, Third Edition, R. Levey, et al., Editors. 1989, Raven Press Ltd: New York. Mice were pretreated orally with compounds of the present invention 30 minutes prior to electrical stimulation. Electrical stimulation consisted of pulsed electrical current (50 mA, 0.4 second duration, pulse width 0.5 msec, 60 pulses/sec) applied via corneal electrodes to induce seizure. The stimulation was delivered with an ECT Unit (Ugo Basile #7801). […] The percent protection from tonic seizures was calculated by dividing the number of protected mice by the total number in the group. […]

[2] = system: CD-1 mice; assay: Subcutaneous pentylenetetrazole (PTZ) Seizure Procedure; type: in vivo; conditions: Mus musculus; subcutaneous PTZ 85 mg/kg; male CD-1 mice; p.o. 30 minutes prior to PTZ; observed 15 minutes; linear regression; read-out: ED50 (dose at which 50% of the mice were protected from tonic seizures)
Procedure: as §1, §2
Subcutaneous pentylenetetrazole (PTZ) Seizure Procedure:
The method used was similar to that of E. A. Swinyard, General principles: Experimental selection, quantification and evaluation of anti-convulsants, Anti-epileptic Drugs, Third Edition, R. Levey, et al., Editors. 1989, Raven Press Ltd: New York. During the experiment the mice were housed individually in clear polycarbonate cages for observation. […] Seizures were induced by the subcutaneous injection of pentylenetetrazole (PTZ, 85 mg/kg) just below the nape of the neck. […] A total of 20 mice were used in each group. The ED50for the compounds were calculated using linear regression and represent the dose at which 50% of the mice were protected from tonic seizures.

melting point [°C]	Compound	ED50 [1] [µmol/kg]	ED50 [2] [µmol/kg]
86	CC1(C)[C@@H]2CC3[C@H](C(=O)O)[C@@]3(C)C[C@@H]21 (stereo partly drawn) (hydrate or solvate) [Example 1, (1S,3S,4S,7R)-3,8,8-trimethyltricyclo[5.1.0.0^3,5]octane-4-carboxylic acid]		
121.5 to 122.5	CC1(C)[C@@H]2CC3[C@H](C(N)=O)[C@@]3(C)C[C@@H]21 (stereo partly drawn) [Example 3, (1S,3S,4S,7R)-3,8,8-trimethyltricyclo[5.1.0.0^3,5]octane-4-carboxamide]		
169.2 to 169.7	CC1(C)[C@@H]2CC3[C@H](C(=O)NCC(N)=O)[C@@]3(C)C[C@@H]21 (stereo partly drawn) [Example 4, (1S,3S,4S,7R)-N-(2-amino-2-oxoethyl)-3,8,8-trimethyltricyclo[5.1.0.0^3,5]octane-4-carboxamide]		
	CCCC(CCC)C(=O)O [Valproate]	1200	1800
